Assay results published in patent US10173991B2, “Sulfone amide linked benzothiazole inhibitors of endothelial lipase” (BRISTOL-MYERS SQUIBB COMPANY, priority 2014, dated 2019).

Each compound was assayed against Endothelial lipase (EL) (Homo sapiens (Human), UniProt Q9Y5X9) (assay: Endothelial lipase (EL) enzymatic assay with fluorescent substrate A10070 in DMPG vesicles).
Assay type: biochemical
Summary of the method: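 Compounds were preincubated with enzyme for 30 min at 37° C before FRET-substrate vesicles (A10070 in DMPG, 0.11 mole fraction) were added. Reaction rates were obtained from the 300–900 sec slope of fluorescence at 490/530 nm.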

Chain of Endothelial lipase (EL) (Q9Y5X9 21-500): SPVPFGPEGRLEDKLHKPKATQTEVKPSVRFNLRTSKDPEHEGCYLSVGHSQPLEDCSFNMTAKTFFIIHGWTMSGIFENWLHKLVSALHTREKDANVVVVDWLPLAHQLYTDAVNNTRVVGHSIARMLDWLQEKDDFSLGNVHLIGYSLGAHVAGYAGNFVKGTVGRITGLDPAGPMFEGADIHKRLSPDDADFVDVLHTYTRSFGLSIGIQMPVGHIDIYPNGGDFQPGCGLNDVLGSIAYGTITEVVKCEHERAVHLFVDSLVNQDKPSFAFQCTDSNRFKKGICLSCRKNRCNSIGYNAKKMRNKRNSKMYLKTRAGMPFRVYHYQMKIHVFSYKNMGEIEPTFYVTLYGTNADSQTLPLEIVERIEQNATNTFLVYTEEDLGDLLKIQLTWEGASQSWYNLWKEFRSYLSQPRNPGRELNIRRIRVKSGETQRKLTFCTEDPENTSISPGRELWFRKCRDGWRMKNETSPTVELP

IC50 [nM] | Compound
78 | CC(C)(C)OC(=O)N1CCC(S(=O)(=O)C(C(=O)NCC(=O)NC2CC2)c2nc3ccc(-c4ccc(F)nc4)cc3s2)CC1 (centres unmarked) [Example 222, tert-butyl 4-({[(cyclopropyl-carbamoyl)methyl]carbamoyl}[6-(6-fluoropyridin-3-yl)-1,3-benzothiazol-2-yl]methanesulfonyl) piperidine-1-carboxylate]
7 | COC(=O)Nc1ccc(-c2cc3nc(C(C(=O)NCC(=O)NC4CC4)S(C)(=O)=O)sc3cc2F)cc1F (centres unmarked) [Example 122, methyl N-{4-[2-({[(cyclopropyl-carbamoyl)methyl]carbamoyl} (methanesulfonyl)methyl)-6-fluoro-1,3-benzothiazol-5-yl]-2-fluorophenyl} carbamate]
21 | COCCS(=O)(=O)C(C(=O)NCC(=O)NC1CC1)c1nc2cc(-c3ccc(F)nc3)c(C)cc2s1 (centres unmarked) [Example 182, N-[(cyclopropyl-carbamoyl)methyl]-2-[5-(6-fluoropyridin-3-yl)-6-methyl-1,3-benzothiazol-2-yl]-2-(2-methoxyethane-sulfonyl) acetamide]

Continued, compound first:

Compound | IC50 [nM]
COCCS(=O)(=O)C(C(=O)NCC(=O)NC1CC1)c1nc2cc(F)c(-c3ccnn3C)cc2s1 (centres unmarked) [Example 167, N-[(cyclopropyl-carbamoyl)methyl]-2-[5-fluoro-6-(1-methyl-1H-pyrazol-5-yl)-1,3-benzothiazol-2-yl]-2-(2-methoxyethane-sulfonyl) acetamide] | 23
CC(C)S(=O)(=O)C(C(=O)NCC(=O)NC1CC1)c1nc2cc(C(F)(F)F)c(-c3ccnn3C)cc2s1 (centres unmarked) [Example 180, N-[(cyclopropyl-carbamoyl)methyl]-2-[6-(1-methyl-1H-pyrazol-5-yl)-5-(trifluoromethyl)-1,3-benzothiazol-2-yl]-2-(propane-2-sulfonyl) acetamide] | 88
Cc1cnn(-c2cccc(-c3ccc4nc(C(C(=O)NCC(=O)NC5CC5)S(C)(=O)=O)sc4c3)n2)c1 (centres unmarked) [Example 413, N-[(cyclopropyl-carbamoyl)methyl]-2-methanesulfonyl-2-{6-[6-(4-methyl-1H-pyrazol-1-yl)pyridin-2-yl]-1,3-benzothiazol-2-yl}acetamide] | 7
CS(=O)(=O)C(C(=O)NCC(=O)NC1CC1)c1nc2cc(F)c(-c3ccc(C(=O)NCCC#N)cc3)cc2s1 (centres unmarked) [Example 41, N-(2-cyanoethyl)-4-[2-({[(cyclopropyl-carbamoyl)methyl]carbamoyl} (methanesulfonyl)methyl)-5-fluoro-1,3-benzothiazol-6-yl]benzamide] | 5
COCCS(=O)(=O)C(C(=O)NCC(=O)NC1CC1)c1nc2cc(F)c(-c3ccc(NC(=O)OCc4ccccc4)nc3)cc2s1 (centres unmarked) [Example 551, benzyl N-{5-[2-({[(cyclopropyl-carbamoyl)methyl]carbamoyl}(2-methoxyethane-sulfonyl)methyl)-5-fluoro-1,3-benzothiazol-6-yl]pyridin-2-yl} carbamate] | 1
Cc1nc2cc(-c3cc4sc(C(C(=O)NCC(=O)NC5CC5)S(C)(=O)=O)nc4cc3F)ccc2s1 (centres unmarked) [Example 248, N-[(cyclopropyl-carbamoyl)methyl]-2-[5-fluoro-6-(2-methyl-1,3-benzothiazol-5-yl)-1,3-benzothiazol-2-yl]-2-methanesulfonyl-acetamide] | 1
O=C(CNC(=O)C(c1nc2cc(F)c(-c3cccc(-c4cc[nH]n4)c3)cc2s1)S(=O)(=O)CCC(F)(F)F)NC1CC1 (centres unmarked) [Example 143, N-[(cyclopropyl-carbamoyl)methyl]-2-{5-fluoro-6-[3-(1H-pyrazol-3-yl)phenyl]-1,3-benzothiazol-2-yl}-2-(3,3,3-trifluoropropane-sulfonyl) acetamide] | 3
O=C(CNC(=O)C(c1nc2cc(F)c(-c3cccc(-n4cccn4)c3)cc2s1)S(=O)(=O)CCC(F)(F)F)NC1CC1 (centres unmarked) [Example 137, N-[(cyclopropyl-carbamoyl)methyl]-2-{5-fluoro-6-[3-(1H-pyrazol-1-yl)phenyl]-1,3-benzothiazol-2-yl}-2-(3,3,3-trifluoropropane-sulfonyl) acetamide] | 1
